US20130344095A1, “METHOD OF USING CD1D OVER-EXPRESSION IN HUMAN DENDRITIC CELLS TO ENHANCE CD8+ T CELL-BASED AND INVARIANT NATURAL KILLER T CELL-BASED ANTITUMOR IMMUNITY” (priority 2011, published 2013)

What was measured:
[1] = test system: MART-1 peptide-specific CD8+ T cells; assay: Priming of MART-1 peptide-specific CD8+ T cells by H1.DCs (pentamer staining); format: cell-based, human; details: for T cell priming ability of CD1d-overexpressing H1.DCs: DCs treated 24 hours with 20 μM PPMP or 150 μM NB-DGJ one day after transduction
Description: (§1) The DCs were first transduced by BV-CMV.CD1d-WPRE and pulsed with or without 100 ng/ml α-GC for 24 h one day after transduction. Two days after transduction, the DCs were pulsed with 10 μg/ml MART-1 peptide for 4 h. After washing, 10^5 DCs were co-cultured with 10^6 HLA A2+ PBLs in complete RPMI 1640. After co-culture of 9 days, to detect antigen-specific CTLs, the samples were stained with APC mouse anti-human CD3, FITC-labeled anti-CD8 (ProImmune) and R-PE-labeled A*0201/[…] Pentamer (ProImmune) and analyzed by FACSAria flow cytometer. In some experiments, the CD1d-overexpressing human DCs were pretreated with anti-CD1d blocking antibody (eBioscience, San Diego, Calif.) or its isotype control (eBiosciecne) before applying for T cell priming. To study the effect of glycolipid biosynthesis inhibition on T cell priming, the BVCD1d-transduced human DCs were treated with 20 μM DL-threo-1-Phenyl-2-palmitoylamino-3-morpholino-1-propanol (PPMP; Sigma-Aldrich) or 150 μM N-(n-Butyl)deoxygalactonojirimycin (NB-DGJ; Merck KGaA, Darmstadt, Germany) for 24 hours one day after transduction. In other experiments, the cocultures were restimulated with 10^5 MART-1 peptide-pulsed DCs on day 9 of coculture and analyzed one week after restimulation. To measure antigen-specific CTL activity, the cocultures were stimulated for the third time on day 7 after second stimulation with 10^5 MART-1 peptide-pulsed DCs and used as effectors for lysis of tumor cells one week later.

[2] = test system: MART-1 peptide-specific CD8+ T cells; assay: Priming of MART-1 peptide-specific CD8+ T cells by moDCs (pentamer staining); format: cell-based, human; details: DCs treated 24 hours with 20 μM PPMP or 150 μM NB-DGJ one day after transduction
Description: as §1, with “To measure antigen-specific CTL activity, the cocultures were stimulated for the third time on day 7 after second stimulation with 10^5 MART-1 peptide-pulsed DCs and used as effectors for lysis of tumor cells one week later.” left out

Structure (SMILES)	T cell priming ability of CD1d-overexpressing H1.DCs [1]	T cell priming ability of CD1d-overexpressing moDCs [2]	priming ability of CD1d-overexpressing H1.DCs with α-GC loading ([1]; compared with those without α-GC loading (p<0.04))	effect of α-GC loading on priming of antigen-specific CD8+ T cells ([1]; mock-transduced, BV-PacPAK6-transduced and CD1d-overexpressing H1.DCs, 100 ng/ml α-GC)
CCCCCCCCCCCCCCCC(=O)N[C@H](CN1CCOCC1)[C@H](O)c1ccccc1 (racemic) [PPMP, DL-threo-1-Phenyl-2-palmitoylamino-3-morpholino-1-propanol]	inhibited	inhibited	–	–
CCCCN1C[C@H](O)[C@@H](O)[C@@H](O)[C@H]1CO [NB-DGJ, N-(n-Butyl)deoxygalactonojirimycin]	inhibited	inhibited	–	–
CCCCCCCCCCCCCCCCCCCCCCCCCC(=O)N[C@@H](CO[C@H]1O[C@H](CO)[C@H](O)[C@H](O)[C@H]1O)[C@H](O)[C@H](O)CCCCCCCCCCCCCC [α-GC, α-galactosylceramide]	–	–	significantly decreased	no obvious beneficial effect
